The experiment relates to Respiratory Syncytial Virus. Kind of experiment: microbe, parasite or virus in culture. The class given is cell-based. To be noted: for EC50: human respiratory syncytial virus, 168 h. The text has this:
In vitro Screening for Activity against Respiratory Syncytial Virus.
The percent protection against cytopathology caused by viruses (antiviral activity or EC50) achieved by tested compounds and their cytotoxicity (CC50) are both calculated from dose-response curves. The selectivity of the antiviral effect is represented by the selectivity index (SI), calculated by dividing the CC50 (cytotoxic dose for 50% of the cells) by the EC50 (antiviral activity for 50% of the cells).
Automated tetrazolium-based colorimetric assays were used for determination of EC50 and CC50 of test compounds. Flat-bottom, 96-well plastic microtiter trays were filled with 180 μl of Eagle's Basal Medium, supplemented with 5% FCS (0% for FLU) and 20 mM Hepes buffer. Subsequently, stock solutions (7.8× final test concentration) of compounds were added in 45 μl volumes to a series of triplicate wells so as to allow simultaneous evaluation of their effects on virus- and mock-infected cells. Five five-fold dilutions were made directly in the microtiter trays using a robot system. Untreated virus controls, and HeLa cell controls were included in each test. Approximately 100 TCID50 of Respiratory Syncytial Virus was added to two of the three rows in a volume of 50 μl. The same volume of medium was added to the third row to measure the cytotoxicity of the compounds at the same concentrations as those used to measure the antiviral activity. After two hours of incubation, a suspension (4×10^5 cells/ml) of HeLa cells was added to all wells in a volume of 50 μl. The cultures were incubated at 37° C. in a 5% CO2 atmosphere. Seven days after infection the cytotoxicity and the antiviral activity was examined spectrophotometrically. To each well of the microtiter tray, 25 μl of a solution of MTT (3-(4,5-dimethylthiazol-2-yl)-2,5-diphenyltetrazolium bromide) was added. The trays were further incubated at 37° C. for 2 hours, after which the medium was removed from each cup. Solubilization of the formazan crystals was achieved by adding 100 μl 2-propanol. Complete dissolution of the formazan crystals were obtained after the trays have been placed on a plate shaker for 10 min. Finally, the absorbances were read in an eight-channel computer-controlled photometer (Multiskan MCC, Flow Laboratories) at two wavelengths (540 and 690 nm). The absorbance measured at 690 nm was automatically subtracted from the absorbance at 540 nm, so as to eliminate the effects of non-specific absorption.

The mark [1] stands for this setting: RSV-infected HeLa cells, MTT readout seven days after infection, −log of EC50 in molar units.
Where [2] appears, read: pEC50 (−log of EC50 when expressed in molar units), protection against RSV cytopathology.

In the case of `Cc1cc(C)cc(N(CCC(=O)O)Cc2ccc3nc(NCCCN4CCOCC4)n(Cc4nc(C)ccc4O)c3c2)c1` [Compound 69], the Activity under setting [1] came out at 8.7.

For `Cc1cccc(N(CCCCO)Cc2ccc3nc(NCCCN4CCOCC4)n(Cc4nc(C)ccc4O)c3c2)c1` [Compound 92], the Activity under setting [1] is on record as 8.8.

Take `Cc1cccc(N(CCCO)Cc2ccc3nc(NCCCN4CCOCC4)n(Cc4nc(C)ccc4O)c3c2)c1` [Compound 93]: the Activity under setting [1] turned out to be 8.7.

Consider `Cc1cc(C)cc(N(CCCC(N)=O)Cc2ccc3nc(NCCCN4CCOCC4)n(Cc4ccc(F)cc4)c3c2)c1` [Compound 315], for which the Activity under setting [2] came out at 6.5.

Take `Cc1ccc(C)c(NCc2ccc3nc(NCCCN4CCOCC4)n(Cc4nc(C)ccc4O)c3c2)c1` [Compound 40]: the Activity under setting [1] turned out to be 8.4.

Turning to `COc1ccc(C)nc1Cn1c(NCCCN2CCOCC2)nc2ccc(CNc3ccc(C)cc3CO)cc21` [Compound 280], the Activity under setting [2] stood at 7.1.

In turn, `Cc1ccc(O)c(Cn2c(NCCCN3CCOCC3)nc3ccc(CN(c4ccccc4)c4cccc(O)c4)cc32)n1` [Compound 109] had an Activity under setting [1] of 7.9.

As to `Cc1nc(C)c(Cn2c(NCCCN3CCOCC3)nc3ccc(CNc4ccccc4CCCO)cc32)nc1C` [Compound 243], under setting [2], the Activity turned out to be 7.8.

`Cc1ccc(CCCO)c(NCc2ccc3c(c2)nc(NCCCN2CCOCC2)n3Cc2cccc(C)n2)c1` [Compound 350]: the Activity under setting [2] was found to be 4.7.

In the case of `Cc1ccc(O)c(Cn2c(NCCCN3CCOCC3)nc3ccc(CN(CC(N)=O)c4ccccc4CCO)cc32)n1` [Compound 101], under setting [1], the Activity came to 8.3.

On to `Cc1ccc(O)c(Cn2c(NCCCN3CCOCC3)nc3ccc(CNc4cc(F)ccc4CCO)cc32)n1` [Compound 18], for which, under setting [1], the Activity is on record as 9.6.

Regarding `OCCCc1ccc(C(F)(F)F)cc1NCc1ccc2nc(NCCCN3CCOCC3)n(Cc3cc(Br)ccc3O)c2c1` [Compound 217], the Activity under setting [2] was determined as 8.7.

`C#Cc1ccc(CCO)c(NCc2ccc3nc(NCCCN4CCOCC4)n(Cc4cccc5c4ncn5C)c3c2)c1` [Compound 236]: the Activity under setting [2] is reported as 8.1.

Under setting [2], `COc1ccc(C)nc1Cn1c(NCCCN2CCOCC2)nc2ccc(CN(CCCC(N)=O)c3cc(C)cc(C)c3)cc21` [Compound 210, -{(3,5-Dimethyl-phenyl)-[3-(3-methoxy-6-methyl-pyridin-2-ylmethyl)-2-(3-morpholin-4-yl-propylamino)-3H-benzoimidazol-5-ylmethyl]-amino}-butyramide] showed an Activity of 9.

In turn, `Cc1cccc(NCc2ccc3nc(NC4CCN(CCN5CCOCC5)CC4)n(Cc4nc(C)ccc4O)c3c2)c1` [Compound 164] gave an Activity under setting [1] of 7.5.

The molecule `Cc1cc(C)cc(N(CCO)Cc2ccc3nc(NCCCN4CCOCC4)n(Cc4cccc(C)n4)c3c2)c1` [Compound 281] registered an Activity under setting [2] of 7.1.

On to `Cc1cccc(NCc2ccc3c(c2)nc(NCCCN2CCOCC2)n3C2CCCc3nc(C)c(C)nc32)c1CO` (stereo not shown) [Compound 293], for which the Activity under setting [2] turned out to be 7.

`Cc1cccc(NCc2ccc3nc(NCCCN4CCOCC4)n(Cc4nc(C)c(C)nc4C)c3c2)c1CO` [Compound 285]: under setting [2], the Activity is 7.1.

In turn, `Cc1ccc(O)c(Cn2c(NCCCN3CCOCC3)nc3ccc(CN(CCO)c4ccccc4)cc32)n1` [Compound 97] registered an Activity under setting [1] of 8.5.

Under setting [2], `Cn1cnc2c(Cn3c(NCCCN4CCOCC4)nc4ccc(CNc5cc(Br)ccc5CCCO)cc43)cccc21` [Compound 232] showed an Activity of 8.4.

Molecule `Cc1ccc(O)c(Cn2c(NCCCN3CCOCC3)nc3ccc(CNc4ccc(S(N)(=O)=O)cc4)cc32)n1` [Compound 37] came in with an Activity under setting [1] of 8.5.

For orientation: EC50 means the concentration needed to bring the measured effect to its halfway point. `Cc1cc(C)cc(NCc2ccc3nc(NCCCN4CCOC(CCO)C4)n(Cc4nc(C)ccc4O)c3c2)c1` (stereo not shown) [Compound 181, 2-(6-[(3,5-Dimethyl-phenylamino)-methyl]-2-{3-[2-(2-hydroxy-ethyl)-morpholin-4-yl]-propylamino}-benzoimidazol-1-ylmethyl)-6-methyl-pyridin-3-ol] had an EC50 under setting [1] of 6.31 nM. This lies in the single-digit nanomolar range.

Under setting [2], `Cn1cnc2c(Cn3c(NCCCN4CCOCC4)nc4ccc(CNc5ccccc5CCN5CCOCC5)cc43)cccc21` [Compound 242] came in with an Activity of 7.8.

`COc1ccc(C)nc1Cn1c(NCCCN2CCOCC2)nc2ccc(CNc3ccccc3CCCO)cc21` [Compound 239] gave an Activity under setting [2] of 7.9.

`Cc1ccc(C=CCO)c(NCc2ccc3nc(NCCCN4CCOCC4)n(Cc4nc(C)ccc4O)c3c2)c1` [Compound 19] had an Activity under setting [1] of 9.3.

`Cc1ccc(O)c(Cn2c(NCCCN3CCOCC3)nc3ccc(CNc4cc(Cl)ccc4CCCO)cc32)n1` [Compound 4]: the Activity under setting [1] came out at 9.9.

On to `Cc1ccc(O)c(Cn2c(NCCCN3CCOCC3)nc3ccc(CNc4cc(C(F)(F)F)ccc4CCCO)cc32)n1` [Compound 13], for which the Activity under setting [1] was 9.5.

Consider `Cc1cccc(N(CCO)Cc2ccc3nc(NCCCN4CCOCC4)n(Cc4nc(C)ccc4O)c3c2)c1` [Compound 86], for which the Activity under setting [1] is 9.3.

As for `Cc1ccc(CCO)c(NCc2ccc3nc(NCCCN4CCOCC4)n(Cc4nc(C)ccc4O)c3c2)c1` [Compound 7], the Activity under setting [1] is recorded as 9.6.

With `Cn1cnc2c(Cn3c(NCCCN4CCOCC4)nc4ccc(CNc5ccccc5C(N)=O)cc43)cccc21` [Compound 288], the Activity under setting [2] is 7.

`Cc1ccc(O)c(Cn2c(NCCCN3CCOCC3)nc3ccc(CN(CCN4CCOCC4)c4ccccc4CCO)cc32)n1` [Compound 103]: the Activity under setting [1] is listed as 8.2.

As for `Cn1cnc2c(Cn3c(NCCCN4CCOCC4)nc4ccc(CNc5ccccc5CCO)cc43)cccc21` [Compound 237], the Activity under setting [2] amounted to 7.9.

`Cc1ccc(CCCO)c(NCc2ccc3c(c2)nc(NCCCN2CCOCC2)n3Cc2cccc3c2ncn3C)c1` [Compound 328] yielded an Activity under setting [2] of 5.8.

In turn, `Cc1ccc(O)c(Cn2c(NC3CCN(CCN4CCOCC4)CC3)nc3cc(/C=C/c4ccccc4)ccc32)n1` [Compound 167] yielded an Activity under setting [1] of 6.7.

Under setting [1], `Cc1ccc(CCC(N)=O)c(NCc2ccc3nc(NCCCN4CCOCC4)n(Cc4nc(C)ccc4O)c3c2)c1` [Compound 16] showed an Activity of 9.3.

Under setting [2], `OCc1ccc2c(c1)nc(NCCCN1CCOCC1)n2Cc1cccc(Br)n1` [Compound 294] yielded an Activity of 6.9.

In turn, `Cn1cnc2c(Cn3c(NCCCN4CCOCC4)nc4ccc(CNc5ccccc5CCC(N)=O)cc43)cccc21` [Compound 238] yielded an Activity under setting [2] of 7.9.

In turn, `Cc1cc(C)cc(N(CCO)Cc2ccc3nc(NCCCN4CCOCC4)n(Cc4cccc(Br)n4)c3c2)c1.Cl` [Compound 278] registered an Activity under setting [2] of 7.1.

Molecule `Cc1ccc(O)c(Cn2c(NCCCN3CCOCC3)nc3ccccc32)n1` [compound 155] showed an Activity under setting [1] of 6.8.

In turn, `Cc1cccc(NCc2ccc3nc(NCCCN4CCOCC4)n(Cc4nc(C)ccc4O)c3c2)c1` [Compound 28] displayed an Activity under setting [1] of 8.6.

Turning to `Cc1cccc(NCc2ccc3nc(NCCCN4CCOCC4)n(Cc4nc(C)c(C)nc4C)c3c2)c1` [Compound 283], the Activity under setting [2] worked out at 7.1.

`Cc1ccc(C)c(NCc2ccc3c(c2)nc(NCCCN2CCOCC2)n3C2CCCc3nc(C)c(C)nc32)c1` (stereo not shown) [Compound 276] displayed an Activity under setting [2] of 7.2.

Regarding `Cc1cc(C)cc(NCc2ccc3c(c2)nc(NCCCN2CCCOCC2)n3Cc2nc(C)ccc2O)c1` [Compound 174, 2-[5-[(3,5-Dimethyl-phenylamino)-methyl]-2-(3-[1,4]oxazepan-4-yl-propylamino)-benzoimidazol-1-ylmethyl]-6-methyl-pyridin-3-ol], the EC50 under setting [1] is 2.51 nM. This lies in the single-digit nanomolar range.
